Tests used:
PHD2181-417 = PHD2181-417 (Homo sapiens (Human), UniProt Q9GZT9); assay: PHD enzymatic assay ([14C]-succinic acid production); type: biochemical; conditions: purified PHD2181-417, HIF-1α peptide substrate, 30 min pre-incubation; average of results
Method in brief: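 Recombinant human PHD2 (aa 181-417, E. coli-expressed, tags cleaved) with peptide substrate (10 μM) and [5-14C]-2-oxoglutarate in Tris pH 7.5 with catalase, DTT and ascorbate, 10 min reaction after 30 min compound pre-incubation; compounds at 100 μM final, 1% DMSO. [14C]-succinate separated by DNP precipitation and beta-counted; IC50 from three-parameter logistic fit.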

[1] = tested on: Erythropoietin secretion, Hep-3B cells; assay: Cellular assay: EPO secretion in Hep-3B cells; type: cell-based; conditions: Homo sapiens, Hep3B, 100 μM compound, 24 hours, percent of EPO secretion relative to assay control compound 7-[(4-Chloro-phenyl)-(5-methyl-isoxazol-3-ylamino)-methyl]-quinolin-8-ol, read-out: Cellular % EPO Stimulation
Method in brief: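 Compounds at 100 μM final were added to Hep-3B cells 24 h after plating and left for 24 h. Secreted EPO in supernatant measured by MSD electrochemiluminescence immunoassay. Reported as percent EPO secretion relative to an 8-hydroxyquinoline reference control compound.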

HIF1-α, Hela cells = assay: Cellular assay for HIF1-α in Hela cells; type: cell-based; conditions: Homo sapiens, 100 μM compound, 6 hours, percent of HIF stimulation relative to assay control compound 7-[(4-Chloro-phenyl)-(5-methyl-isoxazol-3-ylamino)-methyl]-quinolin-8-ol
Protocol: Cellular Assay for HIF1-α
Hela cells (ATCC, Manassas, Va.) were plated in 96-well plates at 20,000 cells per well in 100 μl of DMEM containing 10% fetal bovine serum, 1% non-essential amino acids, 50 IU/mL of penicillin and 50 μg/mL of streptomycin (all cell culture reagents from Invitrogen, Carlsbad, Calif.). 24 hours after plating, changed media to 100 ul of DMEM without 10% fetal bovine serum, 1.1 μl of the stock solution for each compound was added and incubated for 6 hours. All compounds were tested with a final compound concentration of 100 μM. The supernatant was removed and the cells were lysed in 55 μl of MSD lysis buffer containing protease inhibitors. 50 μl of the cell lysate was then transferred to a blocked MSD human HIF-1α detection plate (Meso-Scale Discovery, Gaithersburg, Md., as per manufacturers protocol), and incubated at room temperature on an orbital shaker for 2 hour. After 3 washes in PBS, 25 μl of 20 nM anti-HIF1α a detection antibody was added and incubated for 1 hour at room temperature on an orbital shaker. After 3 washes in PBS, 150 μl of 1× read buffer was added and the plate was then read on a MSD SECTOR instrument. Data was analyzed by determining the percent of HIF stimulation in the presence of 100 μM compound relative to an assay control compound, 7-[(4-Chloro-phenyl)-(5-methyl-isoxazol-3-ylamino)-methyl]-quinolin-8-ol.

PHD2181-417, sequence (Q9GZT9 181-417): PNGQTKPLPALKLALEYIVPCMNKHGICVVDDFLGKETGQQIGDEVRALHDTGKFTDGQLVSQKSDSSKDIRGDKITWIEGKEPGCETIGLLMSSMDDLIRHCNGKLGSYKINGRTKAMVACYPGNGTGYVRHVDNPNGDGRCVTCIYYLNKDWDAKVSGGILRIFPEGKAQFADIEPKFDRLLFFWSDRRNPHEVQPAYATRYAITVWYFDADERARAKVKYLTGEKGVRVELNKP

SMILES	Enzyme pIC50 (PHD2181-417)	activation at 100 µM [1] [%]	activation at 100 µM (HIF1-α, Hela cells) [%]
O=C(O)c1cnn(-c2nc(N3CCCCCC3)c3cc(Oc4ccc(Cl)cc4)ccc3n2)c1 [Example 66, 1-(4-(Azepan-1-yl)-6-(4-chlorophenoxy)quinazolin-2-yl)-1H-pyrazole-4-carboxylic acid]	7.5	–	14
O=C(O)c1cnn(-c2nc(NC3CCOCC3)c3cc(-c4ccccc4)ccc3n2)c1 [Example 56, 1-(6-Phenyl-4-((tetrahydro-2H-pyran-4-yl)amino)quinazolin-2-yl)-1H-pyrazole-4-carboxylic acid]	6.2	–	25
O=C(O)c1cnn(-c2nc(NCC3CCCCC3)c3cc(C4CCCCC4)ccc3n2)c1 [Example 39, 1-(6-Cyclohexyl-4-((cyclohexylmethyl)amino)quinazolin-2-yl)-1H-pyrazole-4-carboxylic acid]	6.9	–	6.1
CC(=O)NC1CCN(c2nc(-n3cc(C(=O)O)cn3)nc3ccc(-c4ccccc4)cc23)CC1 [Example 55, 1-(4-(4-Acetamidopiperidin-1-yl)-6-phenylquinazolin-2-yl)-1H-pyrazole-4-carboxylic acid]	6.7	–	28
CC(C)(C)Nc1nc(-n2cc(C(=O)O)cn2)nc2ccc(Oc3ccccc3)cc12 [Example 72, 1-(4-(tert-Butylamino)-6-phenoxyquinazolin-2-yl)-1H-pyrazole-4-carboxylic acid]	6.7	–	32
N#CC1CCN(c2nc(-n3cc(C(=O)O)cn3)nc3ccc(C4CCCCC4)cc23)CC1 [Example 30, 1-(4-(4-Cyanopiperidin-1-yl)-6-cyclohexylquinazolin-2-yl)-1H-pyrazole-4-carboxylic acid]	6.9	–	77
O=C(O)c1cnn(-c2nc(N3CCOCC3)c3cc(-c4ccccc4)ccc3n2)c1 [Example 58, 1-(4-Morpholino-6-phenylquinazolin-2-yl)-1H-pyrazole-4-carboxylic acid]	6.5	–	49
Cc1cccc(C)c1Oc1cc2c(N3CCSCC3)nc(-n3cc(C(=O)O)cn3)nc2cc1F [Example 18, 1-(6-(2,6-Dimethylphenoxy)-7-fluoro-4-thiomorpholinoquinazolin-2-yl)-1H-pyrazole-4-carboxylic acid]	7.0	–	15

Now from value to compound, other results behind:

Enzyme pIC50 (PHD2181-417)	SMILES	activation at 100 µM [1] [%]	activation at 100 µM (HIF1-α, Hela cells) [%]
7.0	CCN(CC)c1nc(-n2cc(C(=O)O)cn2)nc2ccc(N3CCCCC3)cc12 [Example 88, 1-(4-(Diethylamino)-6-(piperidin-1-yl)quinazolin-2-yl)-1H-pyrazole-4-carboxylic acid]	94	122
6.9	CCN(CC)c1nc(-n2cc(C(=O)O)cn2)nc2cc(Br)ccc12 [Example 96, 1-(7-Bromo-4-(diethylamino)quinazolin-2-yl)-1H-pyrazole-4-carboxylic acid]	–	72
6.8	O=C(O)c1cnn(-c2nc(NCC3CCCCC3)c3ccc(Oc4ccccc4)cc3n2)c1 [Example 84, 1-(4-((Cyclohexylmethyl)amino)-7-phenoxyquinazolin-2-yl)-1H-pyrazole-4-carboxylic acid]	–	4.6
6.2	O=C(O)c1cnn(-c2nc(N3CCOCC3)c3ccc(Oc4ccccc4)cc3n2)c1 [Example 89, 1-(4-Morpholino-7-phenoxyquinazolin-2-yl)-1H-pyrazole-4-carboxylic acid]	–	17
6.1	O=C(O)c1cnn(-c2nc(N3CCCCC3)c3ccc(-c4ccccc4)cc3n2)c1 [Example 82, 1-(7-Phenyl-4-(piperidin-1-yl)quinazolin-2-yl)-1H-pyrazole-4-carboxylic acid]	–	4.6
7.3	O=C(O)c1cnn(-c2nc(N3CCCC3)c3ccc(Oc4ccccc4)cc3n2)c1 [Example 78, 1-(7-Phenoxy-4-(pyrrolidin-1-yl)quinazolin-2-yl)-1H-pyrazole-4-carboxylic acid]	38	64
6.7	O=C(O)c1cnn(-c2nc(NCC3CC3)c3ccc(Oc4ccccc4)cc3n2)c1 [Example 98, 1-(4-((Cyclopropylmethyl)amino)-7-phenoxyquinazolin-2-yl)-1H-pyrazole-4-carboxylic acid]	–	46
6.0	CN(C)c1nc(-n2cc(C(=O)O)cn2)nc2cc(-c3ccccc3)ccc12 [Example 80, 1-(4-(Dimethylamino)-7-phenylquinazolin-2-yl)-1H-pyrazole-4-carboxylic acid]	–	7.8
7.0	O=C(O)c1cnn(-c2nc(NC3CCCCC3)c3ccc(Oc4ccccc4)cc3n2)c1 [Example 97, 1-(4-(Cyclohexylamino)-7-phenoxyquinazolin-2-yl)-1H-pyrazole-4-carboxylic acid]	–	55

Source: US10246442B2, “4-Aminoquinazolin compounds as prolyl hydroxylase inhibitors” (JANSSEN PHARMACEUTICA NV, priority 2011, dated 2019)
